Measurements published in patent US7196110B2, “N-substituted tricyclic 3-aminopyrazoles as inhibitors for the treatment of cell proliferative disorders” (Janssen Phamaceutica N.V., priority 2002, dated 2007).
Read-outs that look alike come from different tables or passages of the source.

Molecular target: T1, PDGF-receptor beta enzyme comprising the tyrosine kinase domain (Homo sapiens, UniProt P09619)
T1 construct: from amino acid 545 to 1106 of GenBank Access NO: AAA36427
Test: Inhibition of PDGF-receptor kinase activity (cell-free, PLC1 peptide, 33P Flashplate)
Assay type: biochemical
Conditions: for inhibition at 10 µM: compound at 10 uM, read-out: Percent Inhibition @ 10 uM
Procedure, shortened: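 Recombinant kinase domain (aa 545–1106) phosphorylated a biotinylated PLC1 peptide with 5 μM ATP plus 33P-γ-ATP, in Tris pH 8, MgCl2, Na3VO4 and 1 mM DTT, for 60 min at 30 °C. Retained 33P was counted after washing. IC50 is the concentration halving activity versus no-inhibitor reactions.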

[1] = PDGF-R kinase activity, read-out: IC50
[2] = read-out: IC50 (μM) on PDGF-R kinase activity

T1 sequence (P09619 545-1106): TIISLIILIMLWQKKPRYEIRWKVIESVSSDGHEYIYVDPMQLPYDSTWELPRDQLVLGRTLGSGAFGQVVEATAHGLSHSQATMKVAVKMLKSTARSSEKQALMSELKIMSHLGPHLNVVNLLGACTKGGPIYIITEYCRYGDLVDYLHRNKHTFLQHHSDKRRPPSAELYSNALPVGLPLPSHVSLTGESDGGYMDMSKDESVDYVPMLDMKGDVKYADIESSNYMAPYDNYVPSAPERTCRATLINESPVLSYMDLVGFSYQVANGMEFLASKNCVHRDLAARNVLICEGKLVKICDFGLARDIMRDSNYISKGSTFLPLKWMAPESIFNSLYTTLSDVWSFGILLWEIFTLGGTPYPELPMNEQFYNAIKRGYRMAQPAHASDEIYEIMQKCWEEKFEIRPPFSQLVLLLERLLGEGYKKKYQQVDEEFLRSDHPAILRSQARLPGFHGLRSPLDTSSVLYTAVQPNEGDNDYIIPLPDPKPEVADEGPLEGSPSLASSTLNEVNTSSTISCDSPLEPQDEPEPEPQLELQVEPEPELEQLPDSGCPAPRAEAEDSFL

inhibition at 10 µM (PDGF-R kinase activity) [%] | IC50 [1] [µM] | IC50 [2] [µM] | Compound
41.5 | – | – | COc1cc2c(cc1OC)-c1n[nH]c(Nc3cccc4c3OC(F)(F)O4)c1C2 [Compound 565, (2,2-Difluoro-benzo[1,3]dioxol-4-yl)-(6,7-dimethoxy-2,4-dihydro-indeno[1,2-c]pyrazol-3-yl)-amine]
97.5 | 0.139 | – | CCC1c2cc(OC)c(OC)cc2-c2c1c(Nc1cccc(Br)c1)nn2C(=O)COCc1ccccc1 (centres unmarked) [Compound 519, 2-Benzyloxy-1-[3-(3-bromo-phenylamino)-4-ethyl-6,7-dimethoxy-4H-indeno[1,2-c]pyrazol-1-yl]-ethanone]
103 | – | 0.556 | COc1cc2c(cc1OC)-c1n[nH]c(Nc3cc(C)cc(C)n3)c1C2 [Compound 588, (6,7-Dimethoxy-2,4-dihydro-indeno[1,2-c]pyrazol-3-yl)-(4,6-dimethyl-pyridin-2-yl)-amine]
96.5 | 0.836 | – | COc1cccc2c1Cc1c-2n[nH]c1Nc1ccc(F)cc1 [Compound 144, (4-Fluoro-phenyl)-(5-methoxy-2,4-dihydro-indeno[1,2-c]pyrazol-3-yl)-amine]
92 | 0.408 | – | COc1cc2c(cc1OC)-c1n[nH]c(Nc3cccc(C(=O)NCCCN4CCCC4)c3)c1C2 [Compound 298, 3-(6,7-Dimethoxy-2,4-dihydro-indeno[1,2-c]pyrazol-3-ylamino)-N-(3-pyrrolidin-1-yl-propyl)-benzamide]
72 | – | – | CCOc1cc2c(cc1OCC)-c1n[nH]c(NCc3ccccc3OC(F)(F)F)c1C2 [Compound 301, (6,7-Diethoxy-2,4-dihydro-indeno[1,2-c]pyrazol-3-yl)-(2-trifluoromethoxy-benzyl)-amine]
104 | 0.013 | – | COCCCOc1cc2c(cc1OC)-c1n[nH]c(Nc3cccc(F)c3)c1C2 [Compound 242, (3-Fluoro-phenyl)-[7-methoxy-6-(3-methoxy-propoxy)-2,4-dihydro-indeno[1,2-c]pyrazol-3-yl]-amine]
94 | 0.933 | – | COc1cc2c(cc1OC)-c1c(c(Nc3cccc(F)c3)nn1CC(N)=O)C2 [Compound 534, 2-[3-(3-Fluoro-phenylamino)-6,7-dimethoxy-4H-indeno[1,2-c]pyrazol-1-yl]-acetamide]
46 | – | – | COc1cc2c(cc1OCCCN1CCN(C)CC1)Cc1c-2n[nH]c1Nc1ccc(F)c(Cl)c1 [Compound 214, (3-Chloro-4-fluoro-phenyl)-{7-methoxy-6-[3-(4-methyl-piperazin-1-yl)-propoxy]-2,4-dihydro-indeno[1,2-c]pyrazol-3-yl}-amine]
90 | 0.181 | – | COc1cccc2c1Cc1c-2n[nH]c1NCc1c(F)cccc1F [Compound 423, (2,6-Difluoro-benzyl)-(5-methoxy-2,4-dihydro-indeno[1,2-c]pyrazol-3-yl)-amine]
54.5 | 6.99 | – | COc1cc2c(cc1OC)-c1n[nH]c(NCc3cc(Cl)cc(Cl)c3)c1C2 [Compound 271, (3,5-Dichloro-benzyl)-(6,7-dimethoxy-2,4-dihydro-indeno[1,2-c]pyrazol-3-yl)-amine]
18 | – | 33.3 | COc1cc2c(cc1OC)-c1n[nH]c(Nc3ncc(Br)cc3C)c1C2 [Compound 576, (5-Bromo-3-methyl-pyridin-2-yl)-(6,7-dimethoxy-2,4-dihydro-indeno[1,2-c]pyrazol-3-yl)-amine]
115 | 0.575 | – | CN(C)CCCOc1cccc2c1Cc1c-2n[nH]c1Nc1cccnc1 [Compound 75, [5-(3-Dimethylamino-propoxy)-2,4-dihydro-indeno[1,2-c]pyrazol-3-yl]-pyridin-3-yl-amine]
97 | 0.241 | – | COc1cc2c(cc1F)Cc1c-2n[nH]c1NCc1ccccc1F [Compound 426, (2-Fluoro-benzyl)-(6-fluoro-7-methoxy-2,4-dihydro-indeno[1,2-c]pyrazol-3-yl)-amine]
88 | 0.686 | – | COc1cc2c(cc1OC)-c1nn(C(=O)Nc3cccc(F)c3)c(Nc3cccc(F)c3)c1C2 [Compound 395, 3-(3-Fluoro-phenylamino)-6,7-dimethoxy-4H-indeno[1,2-c]pyrazole-2-carboxylic acid (3-fluoro-phenyl)-amide]
66 | 4.91 | – | COc1ccc(OC)c(CNc2[nH]nc3c2Cc2ccc(C)cc2-3)c1 [Compound 316, (2,5-Dimethoxy-benzyl)-(7-methyl-2,4-dihydro-indeno[1,2-c]pyrazol-3-yl)-amine]
72.5 | 1.82 | – | CCOc1cc2c(cc1OCC)-c1n[nH]c(NCc3ccccc3OC)c1C2 [Compound 296, (6,7-Diethoxy-2,4-dihydro-indeno[1,2-c]pyrazol-3-yl)-(2-methoxy-benzyl)-amine]
21.5 | 54.9 | – | COc1ccc(OC)c(Nc2[nH]nc3c2Cc2cc(OCCCN(C)C)ccc2-3)c1 [Compound 162, (2,5-Dimethoxy-phenyl)-[6-(3-dimethylamino-propoxy)-2,4-dihydro-indeno[1,2-c]pyrazol-3-yl]-amine]
90 | 0.372 | – | COc1ccc(OC)c2c1Cc1c-2n[nH]c1Nc1ccccc1 [Compound 332, (5,8-Dimethoxy-2,4-dihydro-indeno[1,2-c]pyrazol-3-yl)-phenyl-amine]
82 | 0.005 | – | Fc1ccc2c(c1)Cc1c-2n[nH]c1Nc1cc(F)ccc1F [Compound 236, (2,5-Difluoro-phenyl)-(6-fluoro-2,4-dihydro-indeno[1,2-c]pyrazol-3-yl)-amine]
72 | 0.083 | – | CC1c2ccccc2-c2n[nH]c(Nc3cc(F)ccc3F)c21 (centres unmarked) [Compound 112, (2,5-Difluoro-phenyl)-(4-methyl-2,4-dihydro-indeno[1,2-c]pyrazol-3-yl)-amine]
98.5 | 0.193 | – | COc1cc2c(cc1OC)-c1c(c(Nc3cccc(F)c3)nn1C(=O)NCCNCCO)C2 [Compound 523, 3-(3-Fluoro-phenylamino)-6,7-dimethoxy-4H-indeno[1,2-c]pyrazole-1-carboxylic acid [2-(2-hydroxy-ethylamino)-ethyl]-amide]
65 | – | – | COc1cc2c(cc1OC)C(C(C)C)c1c-2n[nH]c1Nc1cccc(Br)c1 (centres unmarked) [Compound 538, (3-Bromo-phenyl)-(4-isopropyl-6,7-dimethoxy-2,4-dihydro-indeno[1,2-c]pyrazol-3-yl)-amine]
99.5 | 0.00808 | – | COc1cccc(Nc2[nH]nc3c2Cc2ccccc2-3)c1 [Compound 343]
38 | 3.46 | – | Fc1ccc2c(c1)Cc1c-2n[nH]c1NCc1cc(Cl)cc(Cl)c1 [Compound 304, (3,5-Dichloro-benzyl)-(6-fluoro-2,4-dihydro-indeno[1,2-c]pyrazol-3-yl)-amine]
93 | 0.189 | – | COc1cc2c(cc1OC)-c1n[nH]c(NCc3ccc(F)cc3)c1C2 [Compound 331, (6,7-Dimethoxy-2,4-dihydro-indeno[1,2-c]pyrazol-3-yl)-(4-fluoro-benzyl)-amine]
102 | 0.0325 | – | COc1cc2c(c(NC(C)=O)c1OC)Cc1c-2n[nH]c1Nc1cccc(F)c1 [Compound 557, N-[3-(3-Fluoro-phenylamino)-6,7-dimethoxy-2,4-dihydro-indeno[1,2-c]pyrazol-5-yl]-acetamide]
